# In patent US20050261130A1, “Novel surfactants and formulations” (Monsanto Technology LLC, priority 2000, published 2005):
# Assays:
# [1] = cited from earlier work
# [2] = Specific gravity (Mettler DA-300 Density/Specific Gravity Meter); type: physicochemical; settings: 20/15.6° C.; 30% a.e. by weight glyphosate monobasic salt solutions
# Protocol: Specific gravities are measured using a Mettler DA-300 Density/Specific Gravity Meter.
# [3] = Cloud point of aqueous concentrate compositions; type: physicochemical; settings: 12 wt % surfactant
# Protocol: For aqueous solution concentrates, high temperature storage stability is often indicated by a cloud point of about 50° C. or more. Cloud point of a composition is normally determined by heating the composition until the solution becomes cloudy, and then allowing the composition to cool, with agitation, while its temperature is continuously monitored. A temperature reading taken when the solution clears is a measure of cloud point. A cloud point of 50° C. or more is normally considered acceptable for most commercial purposes for a glyphosate SL formulation. Ideally the cloud point should be 60° C. or more, and the composition should withstand temperatures as low as about −10° C. for up to about 7 days without crystal growth, even in the presence of seed crystals of the glyphosate salt.
# Cloud points were measured by heating a small amount of the material in a test tube until the solution became hazy or cloudy then removing the test tube from the heat and observing the temperature at which the solution became clear on cooling. The temperature at which the solution became clear is noted as the cloud point.
# Cloud point was determined for certain liquid compositions of Examples 66-69 as follows. A sample of the composition in a test tube was heated in a water bath until it became cloudy. The test tube was then removed from the water bath and the sample stirred with a thermometer until it became clear. The temperature at which the sample became clear was recorded as the cloud point of the composition.
# [4] = Haake viscosity (Haake VT500, shear rate 45 sec^−1); type: physicochemical; settings: 12 wt % surfactant
# Protocol: (§1) Viscosities were measured using a Haake Model VT500(Haake, Inc., Karlsruhe Germany) equipped with the appropriate MV series cup and bob sensor system at a shear rate of 45 sec^−1. The temperature was varied with the attached water bath. For a few samples for which insufficient sample was available the viscosities were measured with a Brookfield Model DV-11 equipped with a Small Sample Adapter (Brookfield Laboratories, Inc., Stoughton, Mass.).
# [5] = Compatibility of surfactant with potassium glyphosate concentrate (no phase separation, 50° C., 1 week); type: physicochemical; settings: 50° C. oven 1 week; for Compatible w/37% a.e. K + glyphosate at 12 wt % loading: 37 wt. % a.e. potassium glyphosate/12 wt. % surfactant; for Compatible w/40% a.e. K + glyphosate at 10% wt loading: 40 wt. % a.e. potassium glyphosate/10 wt. % surfactant; for Compatible w/45% a.e. K + glyphosate at 15% wt loading: 45 wt. % a.e. potassium glyphosate/15 wt. % surfactant
# Protocol: For the 31 wt. % a.e. potassium glyphosate/10 wt. % surfactant compositions: 1.550 g of 40 wt. % a.e. aqueous glyphosate potassium salt solution was weighed into a vial. To the same vial, 0.200 g of surfactant was added. Enough deionized water was then added to the contents to bring the total weight to 2.000g. The mixture was stirred for 2 hours at room temperature and checked to see if a solution had been formed. If a solution was present, the test vial was allowed to stand at room temperature overnight. If a solution was still present, the test vial was placed in a 50° C. oven for 1 week. If no phase separation had occurred in one week, the surfactant being tested was considered “compatible.” All of the surfactants identified in Table 4 were compatible at the 31% a.e. potassium/10 wt. % surfactant loading.
# For the 37 wt. % a.e. potassium glyphosate/12 wt. % surfactant compositions: 41.1 g of 45 wt. % a.e. aqueous glyphosate potassium salt was weighed to a container. To the same container was added 6.0 g of surfactant and 2.9 g deionized water for a total weight of 50.0 g. The remainder of the protocol is the same as that described for the 31 wt. % samples. The surfactants identified in Table 4 that were compatible at the 37% a.e. potassium/12 wt. % surfactant loading are indicated in Table 5 below.
# For the 40 wt. % a.e. potassium glyphosate/10 wt. % surfactant compositions: 1.79 g of 45 wt. % a.e. aqueous glyphosate potassium salt was weighed into a vial. To the same vial was added 0.2 g of surfactant. The remainder of the protocol is the same as that described for the 31 wt. % samples. The surfactants identified in Table 4 that were compatible at the 40% a.e. potassium/10 wt. % surfactant loading are indicated in Table 5 below.
# For the 45 wt. % a.e. potassium glyphosate/15 wt. % surfactant compositions: 1.100 g of solid mono potassium glyphosate was weighed into a vial. To the same vial was added 0.300 g surfactant. Enough deionized water was added to the vial to bring the final weight to 2.000 g. The remainder of the protocol is the same as that described for the 31 wt. % samples. The surfactants identified in Table 4 that were compatible at the 45% a.e. potassium/[…] are indicated in Table 5 below.
# [6] = Compatibility of surfactant with diammonium glyphosate concentrate (no phase separation, 50° C., 1 week); type: physicochemical; settings: 50° C. oven 1 week; for Compatible w/31% a.e. diammonium glyphosate at 10 wt % loading: 31 wt. % a.e. diammonium glyphosate/10 wt. % surfactant; for Compatible w/37% a.e. diammonium glyphosate at 12 wt % loading: 37 wt. % a.e. diammonium glyphosate/12 wt. % surfactant
# Protocol: For the 31 wt. % a.e. NH4^+glyphosate/10 wt. % surfactant compositions: • 1.48 g of 41.9 wt % a.e. aqueous glyphosate diammonium (1.7 eq) salt was weighed into a vial. To the same vial was added 0.2 g of surfactant and 0.32 g deionized water. The remainder of the protocol is the same as that described for the 31 wt % potassium glyphosate samples. The surfactants identified in Table 4 that were compatible at the 31% a.e. ammonium/10 wt. % surfactant loading are indicated in Table 5 below.
# For the 37 wt. % a.e. NH4^+glyphosate/12 wt. % surfactant compositions: • 1.76 g of 41.9 wt % a.e. aqueous glyphosate diammonium (1.7 eq) salt was weighed into a vial. To the same vial was added […]. The remainder of the protocol is the same as that described for the 31 wt % potassium glyphosate samples. The surfactants identified in Table 4 that were compatible at the 37% a.e. ammonium/12 wt. % surfactant loading are indicated in Table 5 below.
# [7] = Brookfield viscosity (Model DV-11, Small Sample Adapter); type: physicochemical; settings: 10° C.
# Protocol: as §1
# [8] = Density of formulations (Mettler DA-300 Density Meter); type: physicochemical; settings: 20° C.; 50.0% glyphosate acid (61% potassium glyphosate) solution of Example A
# Protocol: The density was then determined using a Mettler DA-300 Density Meter and the concentrations in grams per liter was calculated.
molecule,measurement,setting,value
"O=C(O)CNCP(=O)(O)O [glyphosate, N-phosphonomethylglycine]",Solubility in water,[1]; 25° C.,1.16 % by weight
NCCO.O=C(O)CNCP(=O)(O)O [monoethanolammonium (MEA)],Specific Gravity,[2],1.2357
C[S+](C)C.O=C(O)CNCP(=O)([O-])O [trimethylsulfonium (TMS)],Specific Gravity,[2],1.1904
CCCCN(CCCC)CCCN [F],Cloud Point Data 37% a.e. K + glyphosate at 12 wt % loading,[3],>90 °C
same,"Viscosity Data 37% a.e. K + glyphosate at 12 wt % loading, Haake Vis.",[4]; 0° C.,273.01 cPs
same,"Viscosity Data 37% a.e. K + glyphosate at 12 wt % loading, Haake Vis.",[4]; 5° C.,173.57 cPs
same,"Viscosity Data 37% a.e. K + glyphosate at 12 wt % loading, Haake Vis.",[4]; 10° C.,142.38 cPs
same,"Viscosity Data 37% a.e. K + glyphosate at 12 wt % loading, Haake Vis.",[4]; 15° C.,110.89 cPs
same,"Viscosity Data 37% a.e. K + glyphosate at 12 wt % loading, Haake Vis.",[4]; 25° C.,57.29 cPs
same,"Viscosity Data 37% a.e. K + glyphosate at 12 wt % loading, Haake Vis.",[4]; −5° C.,400.48 cPs
same,Compatible w/37% a.e. K + glyphosate at 12 wt % loading,[5],Yes
same,Compatible w/40% a.e. K + glyphosate at 10% wt loading,[5],Yes
same,Compatible w/45% a.e. K + glyphosate at 15% wt loading,[5],Yes
CCCCCCCCNCC(O)C(O)C(O)C(O)CO (stereo not shown) [AA],Cloud Point Data 37% a.e. K + glyphosate at 12 wt % loading,[3],>90 °C
same,Compatible w/31% a.e. diammonium glyphosate at 10 wt % loading,[6],Yes
same,Compatible w/37% a.e. diammonium glyphosate at 12 wt % loading,[6],Yes
same,"Viscosity Data 37% a.e. K + glyphosate at 12 wt % loading, Brookfield Viscosity","[7]; Spindle 31, 12 rpm","12 rpm, 52.6 cPs"
same,"Viscosity Data 37% a.e. K + glyphosate at 12 wt % loading, Brookfield Viscosity","[7]; Spindle 31, 60 rpm","60 rpm, 60.1 cPs"
same,Compatible w/37% a.e. K + glyphosate at 12 wt % loading,[5],Yes
same,Compatible w/40% a.e. K + glyphosate at 10% wt loading,[5],Yes
same,Compatible w/45% a.e. K + glyphosate at 15% wt loading,[5],Yes
"CCCCCCN(CCCN(CCCCCC)CC(O)C(O)C(O)C(O)CO)CC(O)C(O)C(O)C(O)CO (stereo not shown) [Surfactant AAA, 1,6 hexylaminoglucitol propane]",Compatible w/31% a.e. diammonium glyphosate at 10 wt % loading,[6],Yes
same,Compatible w/37% a.e. diammonium glyphosate at 12 wt % loading,[6],Yes
same,"Viscosity Data 37% a.e. K + glyphosate at 12 wt % loading, Brookfield Vis.","[7]; Spindle 31, 12 rpm","12 rpm, 76.5 cp"
same,"Viscosity Data 37% a.e. K + glyphosate at 12 wt % loading, Brookfield Vis.","[7]; Spindle 31, 60 rpm","60 rpm, 78.2 cp"
same,Compatible w/37% a.e. K + glyphosate at 12 wt % loading,[5],Yes
same,Compatible w/45% a.e. K + glyphosate at 15% wt loading,[5],Yes
CC(C)CC(C)CC(C)COCCCNCCCN (stereo not shown) [R],Cloud Point Data 37% a.e. K + glyphosate at 12 wt % loading,[3],>90 °C
same,"Viscosity Data 37% a.e. K + glyphosate at 12 wt % loading, Haake Vis.",[4]; 0° C.,2517 cPs
same,"Viscosity Data 37% a.e. K + glyphosate at 12 wt % loading, Haake Vis.",[4]; 5° C.,2269 cPs
same,"Viscosity Data 37% a.e. K + glyphosate at 12 wt % loading, Haake Vis.",[4]; 10° C.,1963 cPs
same,"Viscosity Data 37% a.e. K + glyphosate at 12 wt % loading, Haake Vis.",[4]; 15° C.,1420 cPs
same,"Viscosity Data 37% a.e. K + glyphosate at 12 wt % loading, Haake Vis.",[4]; 25° C.,1077 cPs
same,"Viscosity Data 37% a.e. K + glyphosate at 12 wt % loading, Haake Vis.",[4]; −5° C.,"−5° C., too thick"
same,Compatible w/37% a.e. K + glyphosate at 12 wt % loading,[5],Yes
CCCCCCCCCCCCCCCCCCN(C)CC(O)C(O)C(O)C(O)CO (stereo not shown) [SS],Compatible w/31% a.e. diammonium glyphosate at 10 wt % loading,[6],No
same,Compatible w/37% a.e. diammonium glyphosate at 12 wt % loading,[6],No
same,"Viscosity Data 37% a.e. K + glyphosate at 12 wt % loading, Brookfield Vis.","[7]; Spindle 31, 12 rpm","12 rpm, 86.5 cp"
same,"Viscosity Data 37% a.e. K + glyphosate at 12 wt % loading, Brookfield Vis.","[7]; Spindle 31, 60 rpm","60 rpm, 88.2 cp"
same,Compatible w/37% a.e. K + glyphosate at 12 wt % loading,[5],Yes
CN [methylammonium],Specific Gravity,[2],1.1667
CC(C)N.O=C(O)CNCP(=O)(O)O [isopropylammonium (IPA)],Specific Gravity,[2],1.1554
CCCN.O=C(O)CNCP(=O)(O)O,Specific Gravity,[2],1.1429
ammonium,Specific Gravity,[2],1.1814
"O=C(O)CNCP(=O)([O-])O.[K+] [potassium, glyphosate potassium salt]",Density of the resulting solution,[8],approximately 1.4661 grams/milliliter
same,Specific Gravity,[2],1.2539
same,Solubility in pure water,"[1]; 20° C., as salt",about 54 % by weight
same,"Solubility in pure water, glyphosate acid equivalent",[1]; 20° C.,about 44 % glyphosate acid equivalent (a.e.) by weight
NCCOCCOCCN [DD],Cloud Point Data 37% a.e. K + glyphosate at 12 wt % loading,[3],>90 °C
same,"Viscosity Data 37% a.e. K + glyphosate at 12 wt % loading, Haake Vis.",[4]; 0° C.,231.17 cPs
same,"Viscosity Data 37% a.e. K + glyphosate at 12 wt % loading, Haake Vis.",[4]; 5° C.,150.26 cPs
same,"Viscosity Data 37% a.e. K + glyphosate at 12 wt % loading, Haake Vis.",[4]; 10° C.,138.80 cPs
same,"Viscosity Data 37% a.e. K + glyphosate at 12 wt % loading, Haake Vis.",[4]; 15° C.,82.51 cPs
same,"Viscosity Data 37% a.e. K + glyphosate at 12 wt % loading, Haake Vis.",[4]; 25° C.,49.37 cPs
same,"Viscosity Data 37% a.e. K + glyphosate at 12 wt % loading, Haake Vis.",[4]; −5° C.,397.16 cPs
same,Compatible w/37% a.e. K + glyphosate at 12 wt % loading,[5],Yes
CCCCCCCCN(C)CC(O)C(O)C(O)C(O)CO (stereo not shown) [UU],Compatible w/31% a.e. diammonium glyphosate at 10 wt % loading,[6],No
same,Compatible w/37% a.e. diammonium glyphosate at 12 wt % loading,[6],No
same,"Viscosity Data 37% a.e. K + glyphosate at 12 wt % loading, Brookfield Vis.","[7]; Spindle 31, 12 rpm","12 rpm, 114 cp"
same,"Viscosity Data 37% a.e. K + glyphosate at 12 wt % loading, Brookfield Vis.","[7]; Spindle 31, 60 rpm","60 rpm, 113 cp"
same,Compatible w/37% a.e. K + glyphosate at 12 wt % loading,[5],Yes
